Read-outs that look alike come from different tables or passages of the source.
Assays:
AChE = settings: cited from earlier work
BACE1 [1] = settings: cited from earlier work
BuChE = settings: cited from earlier work
[2] = target: T1, AChE from Electrophorus electricus (electric eel) (Electrophorus electricus, UniProt O42275); experiment: biochemical; settings: mean ± SD of three independent experiments
T1 construct: purchased Sigma-Aldrich C3389

BACE1 [3] = target: T2, BACE1 (Homo sapiens, UniProt P56817); experiment: In vitro β-secretase (BACE1) activity assay kit (fluorescence); assay type: biochemical, equine
T2 construct: purchased Sigma-Aldrich CS0010

human AChE = settings: cited from earlier work
BACE-1 = settings: cited from earlier work
hBuChE = target: hBuChE; parameters: method as in PMID 23041347; settings: cited from earlier work

T1 sequence (O42275 24-633): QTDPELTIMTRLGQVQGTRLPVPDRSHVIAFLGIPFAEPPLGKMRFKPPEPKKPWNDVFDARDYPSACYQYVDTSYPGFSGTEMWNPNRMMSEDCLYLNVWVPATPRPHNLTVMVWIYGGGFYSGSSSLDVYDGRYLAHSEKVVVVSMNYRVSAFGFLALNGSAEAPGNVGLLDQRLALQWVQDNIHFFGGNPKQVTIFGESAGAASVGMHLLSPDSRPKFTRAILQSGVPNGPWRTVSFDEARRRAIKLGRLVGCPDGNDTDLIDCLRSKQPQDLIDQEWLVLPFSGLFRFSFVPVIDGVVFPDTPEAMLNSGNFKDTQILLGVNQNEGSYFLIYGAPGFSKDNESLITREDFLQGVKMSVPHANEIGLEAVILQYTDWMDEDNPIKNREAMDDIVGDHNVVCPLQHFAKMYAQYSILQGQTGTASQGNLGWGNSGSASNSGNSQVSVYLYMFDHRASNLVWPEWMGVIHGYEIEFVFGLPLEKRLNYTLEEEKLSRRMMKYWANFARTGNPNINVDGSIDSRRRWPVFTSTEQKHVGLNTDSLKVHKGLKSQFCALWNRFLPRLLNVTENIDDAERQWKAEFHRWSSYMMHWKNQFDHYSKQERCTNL
T2 sequence (P56817 46-457 limits assumed): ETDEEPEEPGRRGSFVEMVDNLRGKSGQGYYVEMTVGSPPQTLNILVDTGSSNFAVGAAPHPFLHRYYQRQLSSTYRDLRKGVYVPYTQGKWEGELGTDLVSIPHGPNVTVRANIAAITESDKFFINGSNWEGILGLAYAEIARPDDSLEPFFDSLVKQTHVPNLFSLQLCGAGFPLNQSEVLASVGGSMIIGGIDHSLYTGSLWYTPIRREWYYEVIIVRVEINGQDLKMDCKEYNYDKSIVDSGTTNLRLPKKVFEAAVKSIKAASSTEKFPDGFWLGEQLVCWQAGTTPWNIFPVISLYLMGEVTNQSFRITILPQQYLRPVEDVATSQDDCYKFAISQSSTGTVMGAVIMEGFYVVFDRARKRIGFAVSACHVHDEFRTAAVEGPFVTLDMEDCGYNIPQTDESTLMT

For `CN(C)CCOc1ccc(NC(=O)c2ccccn2)cc1` [Compound V], the IC50 (AChE; read-out: AChE inhibitory activity IC50) is listed as 2490 ± 190 nM.
In the case of `C[C@@H](NC(=O)c1cccc(C(=O)N[C@@H](c2ccccc2)[C@H](O)CNCCC2CCN(Cc3ccccc3)CC2)c1)c1ccccc1` [Derivative VII], the IC50 (AChE; read-out: AChE IC50) is listed as 1830 nM and the IC50 (BACE1 [1]) is listed as 570 nM.
For `CCN(CC)Cc1ccccc1CNC(=O)c1cccc(CC(=O)c2ccc(F)cc2)c1` [III], the IC50 (BuChE; read-out: BChE IC50) is given as 0.08 nM.
For `CCN(CC)Cc1ccccc1CNC(=O)c1cc(C)cc(CC(=O)c2ccc(F)cc2)c1` [IV], the IC50 (BuChE; read-out: BChE IC50) is given as 0.039 nM.
For `COc1cc(C(=O)Nc2cccc(NC(=O)c3cc(OC)c(OC)c(OC)c3)c2)cc(OC)c1OC` [JW1, N,N′-(1,3-phenylene)bis(3,4,5-trimethoxybenzamide)], the IC50 [2] was 770 ± 18 nM and the IC50 (BACE1 [3]) was 54400 ± 1300 nM.
Compound `COc1cc(OC)cc(C(=O)Nc2cccc(NC(=O)c3cc(OC)cc(OC)c3)c2)c1` [JW2, N,N′-(1,3-phenylene)bis(3,5-dimethoxybenzamide)] has an IC50 [2] of 2570 ± 63 nM and an IC50 (BACE1 [3]) of 74000 ± 1610 nM.
Compound `COc1ccc(C(=O)Nc2cccc(NC(=O)c3ccc(OC)c(OC)c3)c2)cc1OC` [JW3, N,N′-(1,3-phenylene)bis(3,4-dimethoxybenzamide)] has an IC50 [2] of 410 ± 28 nM and an IC50 (BACE1 [3]) of 40200 ± 8120 nM.
Work on `COc1cccc(C(=O)Nc2cccc(NC(=O)c3cccc(OC)c3)c2)c1` [JW4, N,N′-(1,3-phenylene)bis(3-methoxybenzamide)] yielded an IC50 [2] of 1200 ± 13 nM and an IC50 (BACE1 [3]) of 81400 ± 4110 nM.
Compound `COc1cc(C(=O)Nc2ccc(NC(=O)c3cc(OC)c(OC)c(OC)c3)cc2)cc(OC)c1OC` [JW5, N,N′-(1,4-phenylene)bis(3,4,5-trimethoxybenzamide)] has an IC50 [2] of 68 ± 58 nM and an IC50 (BACE1 [3]) of 9290 ± 3020 nM.
Work on `COc1cc(OC)cc(C(=O)Nc2ccc(NC(=O)c3cc(OC)cc(OC)c3)cc2)c1` [JW6, N,N′-(1,4-phenylene)bis(3,5-dimethoxybenzamide)] yielded an IC50 [2] of 190 ± 33 nM and an IC50 (BACE1 [3]) of 16700 ± 250 nM.
For `COc1ccc(C(=O)Nc2ccc(NC(=O)c3ccc(OC)c(OC)c3)cc2)cc1OC` [JW7, N,N′-(1,4-phenylene)bis(3,4-dimethoxybenzamide)], the IC50 [2] was 70 ± 3 nM and the IC50 (BACE1 [3]) was 12800 ± 230 nM.
In the case of `COc1cccc(C(=O)Nc2ccc(NC(=O)c3cccc(OC)c3)cc2)c1` [JW8, N,N′-(1,4-phenylene)bis(3-methoxybenzamide)], the IC50 [2] is reported as 56 ± 43 nM and the IC50 (BACE1 [3]) is reported as 9010 ± 280 nM.
`COc1cc(C(=O)Nc2cccc([N+](=O)[O-])c2)cc(OC)c1OC` [MB1, 3,4,5-trimethoxy-N-(3-nitrophenyl)benzamide] gave an IC50 [2] of 670 ± 8 nM and an IC50 (BACE1 [3]) of 40500 ± 2200 nM.
Work on `COc1cc(NC(=O)c2cc(OC)c(OC)c(OC)c2)cc(OC)c1OC` [MB3, 3,4,5-trimethoxy-N-(3,4,5-trimethoxyphenyl)benzamide] yielded an IC50 [2] of 110 ± 78 nM and an IC50 (BACE1 [3]) of 20200 ± 5130 nM.
For `COc1cc(CNC(=O)c2cc(OC)c(OC)c(OC)c2)cc(OC)c1OC` [MB4, 3,4,5-trimethoxy-N-(3,4,5-trimethoxybenzyl)benzamide], the IC50 [2] was 1170 ± 15 nM and the IC50 (BACE1 [3]) was 87700 ± 6220 nM.
For `O=C(NCCCCCCCCCCNc1c2c(nc3ccccc13)CCCC2)c1cc(=O)c2cc(O)ccc2o1` [Molecule VIII], the IC50 (human AChE; human AChE, read-out: IC50 for AChE) is given as 8 nM and the IC50 (BACE-1; read-out: IC50 for BACE-1) is given as 2800 nM.
For `OC(CNCc1cccc(COc2ccccc2)c1)Cn1cc(Br)c2cc(Br)ccc21` (centres unmarked) [compound IX], the IC50 (AChE; read-out: AChE IC50) is listed as 9100 nM and the IC50 (BACE1 [1]; read-out: BACE-1 IC50) is listed as 2500 nM.
In the case of `COc1ccc(C(=O)N(Cc2ccc(Cl)cc2)c2cccc(Br)c2)cc1OC` [compound I], the IC50 (AChE; read-out: AChE IC50) is listed as 1570 nM and the IC50 (BuChE; read-out: BuChE IC50) is listed as 2850 nM.
For `O=C(NCc1cc(Cl)cc(Cl)c1)c1cc(Br)ccc1O` [compound VI], the IC50 (AChE; read-out: inhibitory potency of AChE activity) is listed as 33100 ± 470 nM.
For `CC(=O)c1ccccc1NC(=O)c1ccc(OCCCCC[n+]2ccccc2)cc1` [compound XI], the Ki (human AChE; read-out: hAChE Ki) is given as 81 nM, the IC50 (BACE1 [1]) is given as 310 nM and the Ki (hBuChE) is given as 93 nM.
For `COc1ccc(CNC(=O)C2CCN(C(=O)c3ccccc3)CC2)cc1OC` [compound X], the IC50 (human AChE; in humans, read-out: AChE IC50) is listed as 4.11 nM and the IC50 (BACE-1; in humans, read-out: BACE-1 IC50) is listed as 18.3 nM.
For `COc1ccc(C(=O)Nc2nc(CN(C)Cc3ccccc3)cs2)cc1` [substance II], the IC50 (AChE; read-out: AChE IC50) is listed as 1470 nM and the IC50 (BuChE; read-out: BuChE IC50) is listed as 11400 nM.
